Experimental data as given in patent US20240294551A1 (AMGEN INC., priority 2022, published 2024).
Like-named read-outs stand apart in the source and are kept apart here.

Experiments:
[1] = tested on: Phosphorylation of ERK1/2 in AsPC-1 cells; assay: Phospho-ERK1/2 MSD Assay; assay type: cell-based, human; conditions: Homo sapiens, ASPC1, 2 h
How it was run: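 Read-out: MSD electrochemiluminescent detection of phosphorylated ERK1/2 in whole-cell lysates, fitted to a 4-parameter logistic curve for IC50. Prior to lysis, AsPC-1 cells (25,000 per well) received a 2 h compound dose-response at 37 °C.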

[2] = biological target: His-tagged KRAS G12D protein (Homo sapiens (Human), UniProt P01116, G12D); assay: KRAS G12D TR-FRET Assay; assay type: binding
Sequence of His-tagged KRAS G12D protein (P01116 other isoform, or with tags, fused parts or gaps G12D): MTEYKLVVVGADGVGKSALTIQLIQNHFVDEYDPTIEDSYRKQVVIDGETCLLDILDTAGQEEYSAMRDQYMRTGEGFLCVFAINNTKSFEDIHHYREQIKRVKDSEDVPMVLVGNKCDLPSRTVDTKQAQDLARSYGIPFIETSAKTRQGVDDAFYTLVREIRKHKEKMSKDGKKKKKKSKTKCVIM
How it was run: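 His-tagged KRAS G12D (diluted to 20 nM in pH 7.4 HEPES buffer with 10 mM MgCl2 and 10 μM GDP) was preincubated with titrated compound for 30 min at room temperature. Biotinylated KRPep-2d peptide (diluted to 20 nM) was then added for 1 h, and displacement was monitored by TR-FRET.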

[3] = biological target: GDP-bound KRAS protein (aa 1-169), containing both G12D and C118A amino acid substitutions (Homo sapiens (Human), UniProt P01116, C118A/G12D); assay: KRAS G12D Coupled Nucleotide Exchange Assay; assay type: biochemical
Sequence of GDP-bound KRAS protein (aa 1-169), containing both G12D and C118A amino acid substitutions (P01116 other isoform, or with tags, fused parts or gaps G12D/C118A): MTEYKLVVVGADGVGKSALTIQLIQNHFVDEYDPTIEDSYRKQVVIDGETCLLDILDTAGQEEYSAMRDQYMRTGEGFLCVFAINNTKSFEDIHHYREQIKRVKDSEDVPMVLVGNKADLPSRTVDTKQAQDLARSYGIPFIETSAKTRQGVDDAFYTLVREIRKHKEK

[4] = read-out: 2 h p-ERK (AsPC-1 cells), IC50
[5] = read-out: KRAS G12D Binding IC50
[6] = read-out: KRAS G12D Coupled Exchange IC50

Row | SMILES | IC50 [1, 4] [nM] | IC50 [2, 5] [nM] | IC50 [3, 6] [nM] | IC50 ([1]; read-out: 2 h p-ERK (AsPC-1 cells)) [nM] | IC50 ([2]; TR-FRET, read-out: KRAS G12D Binding) [nM] | IC50 ([3]; 2 hours compound pre-incubation, read-out: KRAS G12D Coupled Exchange) [nM]
1 | Cc1cc2[nH]ncc2c2c1C[C@@H](C)COC(=O)O[C@@H]1CCCN(C1)c1nc(OC[C@@]34CCCN3C[C@H](F)C4)nc3c(F)c-2ncc13 (single isomer, unassigned) [Example 214] | 496 | 22 | 18 | – | – | –
2 | CN1C(=O)OCCCc2c(Cl)cc3[nH]ncc3c2-c2ncc3c(nc(OC[C@@]45CCCN4C[C@H](F)C5)nc3c2F)N2CCC[C@@H]1C2 [Example 74, (17R)-9-Chloro-30-fluoro-24-(((2R,7aS)-2-fluorotetrahydro-1H-pyrrolo[1,2-a]pyrrol-7a(5H)-yl)methoxy)-16-methyl-14-oxa-5,6,16,21,23,25,29-heptaazahexacyclo[24.3.1.1˜17,21˜.0˜2,10˜.0˜3,7˜.0˜22,27˜]hentriaconta-1(30),2,4,7,9,22,24,26,28-nonaen-15-one] | 16 | 3 | 2 | – | – | –
3 | Cn1ncc2cc(Cl)c3c(c21)-c1ncc2c(nc(OC[C@@]45CCCN4C[C@H](F)C5)nc2c1F)N1CCOC[C@H](C1)OC(=O)OCCC3 [Example 335, (26S)-18-chloro-32-fluoro-4-(((2R,7aS)-2-fluorotetrahydro-1H-pyrrolo[1,2-a]pyrrol-7a(5H)-yl)methoxy)-13-methyl-23,25,28-trioxa-1,3,5,9,13,14-hexaazahexacyclo[24.4.1.1~6,10~.0~2,7~.0~11,19~.0~12,16~]dotriaconta-2,4,6,8,10(32),11,14,16,18-nonaen-24-one] | 1260 | 44 | 9 | – | – | –
4 | O=C1COCCc2c(Cl)cc3[nH]ncc3c2-c2ncc3c(nc(OC[C@@]45CCCN4C[C@H](F)C5)nc3c2F)N2CCC[C@H](C2)O1 [Example 90, (17R)-9-chloro-30-fluoro-24-(((2R,7aS)-2-fluorotetrahydro-1H-pyrrolo[1,2-a]pyrrol-7a(5H)-yl)methoxy)-13,16-dioxa-5,6,21,23,25,29-hexaazahexacyclo[24.3.1.1~17,21~.0~2,10~.0~3,7~.0~22,27~]hentriaconta-1(30),2,4,7,9,22,24,26,28-nonaen-15-one] | 167 | 12 | 11 | – | – | –
5 | Cc1cc2[nH]ncc2c2c1CCCOC(=O)O[C@@H]1CCCCN(C1)c1nc(OC[C@@H]3C[C@@H](F)CN3C)nc3c(F)c-2ncc13 [Example 92, (26R)-32-fluoro-4-(((2S,4R)-4-fluoro-1-methyl-2-pyrrolidinyl)methoxy)-18-methyl-23,25-dioxa-1,3,5,9,14,15-hexaazahexacyclo[24.4.1.1~6,10~.0~2,7~.0~11,19~.0~12,16~]dotriaconta-2,4,6,8,10(32),11,13,16,18-nonaen-24-one] | 317 | 13 | 11 | – | – | –
6 | C[C@@H](Oc1nc2c3cnc(c(F)c3n1)-c1c(c(Cl)cc3[nH]ncc13)CCCOC(=O)O[C@@H]1COCCN2C1)[C@@H]1CCCN1C [Example 203, (26S)-18-chloro-32-fluoro-4-((1R)-1-((2S)-1-methyl-2-pyrrolidinyl)ethoxy)-23,25,28-trioxa-1,3,5,9,14,15-hexaazahexacyclo[24.4.1.1~6,10~.0~2,7~.0~11,19~.0~12,16~]dotriaconta-2,4,6,8,10(32),11,13,16,18-nonaen-24-one] | 171 | 17 | 8 | – | – | –
7 | Fc1c2ncc3c(nc(OC[C@@]45CCCN4C[C@H](F)C5)nc13)N1CCOC[C@]3(C1)C[C@@H](C3)OCCCCc1c(Cl)cc3[nH]ncc3c1-2 [Example 263, (1S,3S)-10-chloro-33-fluoro-24-(((2R,7aS)-2-fluorotetrahydro-1H-pyrrolo[1,2-a]pyrrol-7a(5H)-yl)methoxy)-4,30-dioxa-13,14,19,23,25,27-hexaazaheptacyclo[25.4.1.1~1,3~.1~18,22~.0~9,17~.0~12,16~.0~21,26~]tetratriaconta-9,11,14,16,18(33),19,21,23,25-nonaene] | 42.4 | 6 | 4 | – | – | –
8 | Cc1cc2[nH]ncc2c2c1CCOC(=O)OC[C@@H]1CCN(C1)c1nc(OC[C@@]34CCCN3C[C@H](F)C4)nc3c(F)c-2ncc13 [Example 219] | 369 | 19 | 10 | – | – | –
9 | Fc1c2ncc3c(nc(OC[C@@]45CCCN4C[C@H](F)C5)nc13)N1CCC[C@H](C1)Cn1ncc(n1)[C@@H]1C[C@@H]1c1c(Cl)cc3[nH]ncc3c1-2 (mixture of isomers) [Example 383] | – | – | – | 75.4 | 13 | 8
10 | Fc1c2ncc3c(nc(OC[C@@]45CCCN4C[C@H](F)C5)nc13)N1CCC[C@H](C1)Cn1cc(cn1)/C=C\c1c(Cl)cc3[nH]ncc3c1-2 [Example 147] | 298 | 16 | 13 | – | – | –
11 | O=C1CCCCc2c(Cl)cccc2-c2ncc3c(nc(OC[C@@]45CCCN4C[C@H](F)C5)nc3c2F)N2CC[C@H]3CCN1[C@H]3C2 [Example 162, (25S,29R)-15-chloro-30-fluoro-4-(((2R,7aS)-2-fluorotetrahydro-1H-pyrrolo[1,2-a]pyrrol-7a(5H)-yl)methoxy)-1,3,5,9,22-pentaazahexacyclo[20.5.2.1~6,10~.0~2,7~.0~11,16~.0~25,29~]triaconta-2,4,6,8,10(30),11,13,15-octaen-21-one] | 1830 | 37 | 20 | – | – | –
12 | Fc1c2ncc3c(nc(OC[C@@]45CCCN4C[C@H](F)C5)nc13)N1CCCC(C1)c1cnc(o1)CCCc1c(Cl)cc3[nH]ncc3c1-2 (stereo partly drawn) [Example 255] | 77.5 | 10 | 9 | – | – | –
13 | O=C1CCCCc2c(C(F)(F)F)cc3[nH]ncc3c2-c2ncc3c(nc(OC[C@@]45CCCN4C[C@H](F)C5)nc3c2F)N2CCC[C@H](C2)O1 [Example 87, (17R)-30-fluoro-24-(((2R,7aS)-2-fluorotetrahydro-1H-pyrrolo[1,2-a]pyrrol-7a(5H)-yl)methoxy)-9-(trifluoromethyl)-16-oxa-5,6,21,23,25,29-hexaazahexacyclo[24.3.1.1~17,21~.0~2,10~.0~3,7~.0~22,27~]hentriaconta-1(30),2,4,7,9,22,24,26,28-nonaen-15-one] | 421 | 24 | 23 | – | – | –
14 | Cc1cc2[nH]ncc2c2c1CCCOC(=O)OC1CC[C@@H]3CC[C@H]1N3c1nc(OC[C@@]34CCCN3C[C@H](F)C4)nc3c(F)c-2ncc13 (racemic) [Example 96] | 1380 | 67 | 54 | – | – | –
15 | Cc1cc2[nH]ncc2c2c1CCC[C@H](F)C(=O)N(C)[C@@H]1CCCN(C1)c1nc(OC[C@@]34CCCN3C[C@H](F)C4)nc3c(F)c-2ncc13 [Example 51, (14S,17R)-14,30-difluoro-24-(((2R,7aS)-2-fluorotetrahydro-1H-pyrrolo[1,2-a]pyrrol-7a(5H)-yl)methoxy)-9,16-dimethyl-5,6,16,21,23,25,29-heptaazahexacyclo[24.3.1.1~17,21~.0~2,10~.0~3,7~.0~22,27~]hentriaconta-1(30),2,4,7,9,22,24,26,28-nonaen-15-one] | 356 | 10 | 5 | – | – | –
16 | Cc1cc2[nH]ncc2c2c1[C@H]1C[C@@H]1COC(=O)O[C@@H]1CCCN(C1)c1nc(OC[C@@]34CCCN3C[C@H](F)C4)nc3c(F)c-2ncc13 (racemic) [Example 114] | 346 | 19 | 12 | – | – | –
